test system: cytochrome c; assay type: cell-based, mouse; details: not given

Structure (SMILES)	cyt c
NCCc1ccc(O)c(O)c1 [dopamine]	0.007
N[C@@H](C(=O)N[C@@H]1C(=O)N2C(C(=O)O)=C(Cl)CS[C@H]12)c1ccccc1 [cefaclor]	−0.764

same assay, conditions: 20 μM; composite Z-score vs DMSO

Structure (SMILES)	cyt c
CC(=O)OCC(COC(C)=O)OC(C)=O [triacetin]	−0.264
O=C(O)c1cccnc1C(=O)O [quinolinic acid]	−0.222

same assay, conditions: Conc 20 μM; normalized score vs mock-treated (DMSO) wells

Structure (SMILES)	cyt c (composite Z-score)
CC1(C)C2C[C@@H](O)[C@]3(C)C(CC[C@@]4(C)[C@H](c5ccoc5)OC(=O)C5OC543)[C@@]2(C)C(=O)C[C@H]1O (stereo partly drawn) [1-deacetoxy-1-oxo-3,7-dideacetylkhivorin]	−0.411

same assay, conditions: composite Z-score vs DMSO; Conc 20 μM

Structure (SMILES)	cyt c
N[C@@H](C(=O)N[C@@H]1C(=O)N2C(C(=O)O)=C(Cl)CS[C@H]12)c1ccccc1 [cefaclor]	0.231

test system: OXPHOS gene expression; assay type: cell-based, mouse; details: not given

Structure (SMILES)	GE-HTS
NCCc1ccc(O)c(O)c1 [dopamine]	−0.337
N[C@@H](C(=O)N[C@@H]1C(=O)N2C(C(=O)O)=C(Cl)CS[C@H]12)c1ccccc1 [cefaclor]	0.331

same assay, conditions: 20 μM; composite Z-score vs DMSO

Structure (SMILES)	GE-HTS
CC(=O)OCC(COC(C)=O)OC(C)=O [triacetin]	−0.327
O=C(O)c1cccnc1C(=O)O [quinolinic acid]	−0.586

same assay, conditions: Conc 20 μM; normalized score vs mock-treated (DMSO) wells

Structure (SMILES)	GE-HTS (composite Z-score)
CC1(C)C2C[C@@H](O)[C@]3(C)C(CC[C@@]4(C)[C@H](c5ccoc5)OC(=O)C5OC543)[C@@]2(C)C(=O)C[C@H]1O (stereo partly drawn) [1-deacetoxy-1-oxo-3,7-dideacetylkhivorin]	−0.525

same assay, conditions: composite Z-score vs DMSO; Conc 20 μM

Structure (SMILES)	GE-HTS
N[C@@H](C(=O)N[C@@H]1C(=O)N2C(C(=O)O)=C(Cl)CS[C@H]12)c1ccccc1 [cefaclor]	−0.547

test system: mtOXPHOS transcripts; assay type: cell-based, mouse; details: not given

Structure (SMILES)	mitoOX
NCCc1ccc(O)c(O)c1 [dopamine]	−0.655
N[C@@H](C(=O)N[C@@H]1C(=O)N2C(C(=O)O)=C(Cl)CS[C@H]12)c1ccccc1 [cefaclor]	−0.161

same assay, conditions: 20 μM; composite Z-score vs DMSO

Structure (SMILES)	mitoOX
CC(=O)OCC(COC(C)=O)OC(C)=O [triacetin]	−0.569
O=C(O)c1cccnc1C(=O)O [quinolinic acid]	−0.519

same assay, conditions: Conc 20 μM; normalized score vs mock-treated (DMSO) wells

Structure (SMILES)	mitoOX (composite Z-score)
CC1(C)C2C[C@@H](O)[C@]3(C)C(CC[C@@]4(C)[C@H](c5ccoc5)OC(=O)C5OC543)[C@@]2(C)C(=O)C[C@H]1O (stereo partly drawn) [1-deacetoxy-1-oxo-3,7-dideacetylkhivorin]	−0.020

same assay, conditions: composite Z-score vs DMSO; Conc 20 μM

Structure (SMILES)	mitoOX
N[C@@H](C(=O)N[C@@H]1C(=O)N2C(C(=O)O)=C(Cl)CS[C@H]12)c1ccccc1 [cefaclor]	−0.435

test system: mitochondrial membrane potential; assay type: cell-based, mouse; details: not given

Structure (SMILES)	ΔΨm
NCCc1ccc(O)c(O)c1 [dopamine]	−0.849
N[C@@H](C(=O)N[C@@H]1C(=O)N2C(C(=O)O)=C(Cl)CS[C@H]12)c1ccccc1 [cefaclor]	−0.759

same assay, conditions: 20 μM; composite Z-score vs DMSO

Structure (SMILES)	ΔΨm
CC(=O)OCC(COC(C)=O)OC(C)=O [triacetin]	−0.571
O=C(O)c1cccnc1C(=O)O [quinolinic acid]	−1.023

same assay, conditions: Conc 20 μM; normalized score vs mock-treated (DMSO) wells

Structure (SMILES)	ΔΨm (composite Z-score)
CC1(C)C2C[C@@H](O)[C@]3(C)C(CC[C@@]4(C)[C@H](c5ccoc5)OC(=O)C5OC543)[C@@]2(C)C(=O)C[C@H]1O (stereo partly drawn) [1-deacetoxy-1-oxo-3,7-dideacetylkhivorin]	−0.321

same assay, conditions: composite Z-score vs DMSO; Conc 20 μM

Structure (SMILES)	ΔΨm
N[C@@H](C(=O)N[C@@H]1C(=O)N2C(C(=O)O)=C(Cl)CS[C@H]12)c1ccccc1 [cefaclor]	−0.772

test system: cellular dehydrogenase activity; details: not given

Structure (SMILES)	MTT
NCCc1ccc(O)c(O)c1 [dopamine]	−0.754
N[C@@H](C(=O)N[C@@H]1C(=O)N2C(C(=O)O)=C(Cl)CS[C@H]12)c1ccccc1 [cefaclor]	−1.329

same assay, conditions: 20 μM; composite Z-score vs DMSO

Structure (SMILES)	MTT
CC(=O)OCC(COC(C)=O)OC(C)=O [triacetin]	−0.717
O=C(O)c1cccnc1C(=O)O [quinolinic acid]	−1.118

same assay, conditions: Conc 20 μM; normalized score vs mock-treated (DMSO) wells

Structure (SMILES)	MTT (composite Z-score)
CC1(C)C2C[C@@H](O)[C@]3(C)C(CC[C@@]4(C)[C@H](c5ccoc5)OC(=O)C5OC543)[C@@]2(C)C(=O)C[C@H]1O (stereo partly drawn) [1-deacetoxy-1-oxo-3,7-dideacetylkhivorin]	−1.776

same assay, conditions: composite Z-score vs DMSO; Conc 20 μM

Structure (SMILES)	MTT
N[C@@H](C(=O)N[C@@H]1C(=O)N2C(C(=O)O)=C(Cl)CS[C@H]12)c1ccccc1 [cefaclor]	−0.752

test system: nuOXPHOS transcripts; assay type: cell-based, mouse; details: not given

Structure (SMILES)	nucOX
NCCc1ccc(O)c(O)c1 [dopamine]	−0.112
N[C@@H](C(=O)N[C@@H]1C(=O)N2C(C(=O)O)=C(Cl)CS[C@H]12)c1ccccc1 [cefaclor]	0.535

same assay, conditions: 20 μM; composite Z-score vs DMSO

Structure (SMILES)	nucOX
CC(=O)OCC(COC(C)=O)OC(C)=O [triacetin]	−0.187
O=C(O)c1cccnc1C(=O)O [quinolinic acid]	−0.575

same assay, conditions: Conc 20 μM; normalized score vs mock-treated (DMSO) wells

Structure (SMILES)	nucOX (composite Z-score)
CC1(C)C2C[C@@H](O)[C@]3(C)C(CC[C@@]4(C)[C@H](c5ccoc5)OC(=O)C5OC543)[C@@]2(C)C(=O)C[C@H]1O (stereo partly drawn) [1-deacetoxy-1-oxo-3,7-dideacetylkhivorin]	−0.704

same assay, conditions: composite Z-score vs DMSO; Conc 20 μM

Structure (SMILES)	nucOX
N[C@@H](C(=O)N[C@@H]1C(=O)N2C(C(=O)O)=C(Cl)CS[C@H]12)c1ccccc1 [cefaclor]	−0.506

test system: C2C12 myotubes; details: not given

Structure (SMILES)	Viability
NCCc1ccc(O)c(O)c1 [dopamine]	−0.964
N[C@@H](C(=O)N[C@@H]1C(=O)N2C(C(=O)O)=C(Cl)CS[C@H]12)c1ccccc1 [cefaclor]	0.762

same assay, conditions: 20 μM; composite Z-score vs DMSO

Structure (SMILES)	Viability
CC(=O)OCC(COC(C)=O)OC(C)=O [triacetin]	−0.842
O=C(O)c1cccnc1C(=O)O [quinolinic acid]	−0.516

same assay, conditions: Conc 20 μM; normalized score vs mock-treated (DMSO) wells

Structure (SMILES)	Viability (composite Z-score)
CC1(C)C2C[C@@H](O)[C@]3(C)C(CC[C@@]4(C)[C@H](c5ccoc5)OC(=O)C5OC543)[C@@]2(C)C(=O)C[C@H]1O (stereo partly drawn) [1-deacetoxy-1-oxo-3,7-dideacetylkhivorin]	−0.413

same assay, conditions: composite Z-score vs DMSO; Conc 20 μM

Structure (SMILES)	Viability
N[C@@H](C(=O)N[C@@H]1C(=O)N2C(C(=O)O)=C(Cl)CS[C@H]12)c1ccccc1 [cefaclor]	−0.091

test system: reactive oxygen species; assay type: cell-based, mouse; details: not given

Structure (SMILES)	ROS
NCCc1ccc(O)c(O)c1 [dopamine]	−0.046
N[C@@H](C(=O)N[C@@H]1C(=O)N2C(C(=O)O)=C(Cl)CS[C@H]12)c1ccccc1 [cefaclor]	0.387

same assay, conditions: 20 μM; composite Z-score vs DMSO

Structure (SMILES)	ROS
CC(=O)OCC(COC(C)=O)OC(C)=O [triacetin]	0.431
O=C(O)c1cccnc1C(=O)O [quinolinic acid]	0.849

same assay, conditions: Conc 20 μM; normalized score vs mock-treated (DMSO) wells

Structure (SMILES)	ROS (composite Z-score)
CC1(C)C2C[C@@H](O)[C@]3(C)C(CC[C@@]4(C)[C@H](c5ccoc5)OC(=O)C5OC543)[C@@]2(C)C(=O)C[C@H]1O (stereo partly drawn) [1-deacetoxy-1-oxo-3,7-dideacetylkhivorin]	0.626

same assay, conditions: composite Z-score vs DMSO; Conc 20 μM

Structure (SMILES)	ROS
N[C@@H](C(=O)N[C@@H]1C(=O)N2C(C(=O)O)=C(Cl)CS[C@H]12)c1ccccc1 [cefaclor]	0.297

— patent publication US20090143279A1 (priority 2007, published 2009)
